The compounds below were run on HCT116 colorectal cancer cells (assay: Cisplatin sensitization assay (96 h MTS cell viability)). Settings: Cisplatin sensitization value.
Type: cell-based
Procedure, shortened: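 HCT116 cells were dosed simultaneously with compound and cisplatin as a full matrix of 2-fold serial dilutions from 10 μM top final concentration. Incubation was 96 h at 37° C., 5% CO2, followed by 1 h with MTS reagent for the viability read-out. Sensitization values were binned into +++, ++ and + categories.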
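Also: compound concentration needed to lower the IC50 of Cisplatin alone by a set fold.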

SMILES	Cisplatin Sensitization Assay
CN1CCC(Oc2ccncc2NC(=O)c2c(N)nn3cc(CC#N)cnc23)CC1 [I-O-23, 2-amino-6-(cyanomethyl)-N-(4-((1-methylpiperidin-4-yl)oxy)pyridin-3-yl)pyrazolo[1,5-a]pyrimidine-3-carboxamide]	+++ (Compounds with a Cisplatin sensitization value of <0.02 μM are marked with “+++.”)
CN1CCC(Oc2c(Cl)cncc2NC(=O)c2c(N)nn3cc(Cl)cnc23)CC1 [I-O-46, 2-amino-6-chloro-N-(5-chloro-4-((1-methylpiperidin-4-yl)oxy)pyridin-3-yl)pyrazolo[1,5-a]pyrimidine-3-carboxamide]	+ (Compounds with a Cisplatin sensitization value >0.2 μM but <5 μM are marked with “+.”)
CN1CC[C@@H](OC2CCN(c3c(F)cncc3NC(=O)c3c(N)nn4cc(F)cnc34)CC2)C1 [I-N-132, (R)-2-amino-6-fluoro-N-(5-fluoro-4-(4-((1-methylpyrrolidin-3-yl)oxy)piperidin-1-yl)pyridin-3-yl)pyrazolo[1,5-a]pyrimidine-3-carboxamide]	+++ (Compounds with a Cisplatin sensitization value of <0.02 μM are marked with “+++.”)
Cc1cncc(NC(=O)c2c(N)nn3cc(F)cnc23)c1N1CCN(C2COC2)CC1 [I-N-16, 2-amino-6-fluoro-N-(5-methyl-4-(4-(oxetan-3-yl)piperazin-1-yl)pyridin-3-yl)pyrazolo[1,5-a]pyrimidine-3-carboxamide]	+++ (Compounds with a Cisplatin sensitization value of <0.02 μM are marked with “+++.”)
Nc1nn2cc(F)cnc2c1C(=O)Nc1cncc(F)c1N1CCC(C(=O)N2CCC(N3CCCC3)CC2)CC1 [I-G-59, 2-amino-6-fluoro-N-(5-fluoro-4-(4-(4-(pyrrolidin-1-yl)piperidine-1-carbonyl)piperidin-1-yl)pyridin-3-yl)pyrazolo[1,5-a]pyrimidine-3-carboxamide]	+++ (Compounds with a Cisplatin sensitization value of <0.02 μM are marked with “+++.”)
Nc1nn2cc(F)cnc2c1C(=O)Nc1cnccc1N1CCC(N2CCCC2=O)CC1 [I-N-230, 2-amino-6-fluoro-N-(4-(4-(2-oxopyrrolidin-1-yl)piperidin-1-yl)pyridin-3-yl)pyrazolo[1,5-a]pyrimidine-3-carboxamide]	+++ (Compounds with a Cisplatin sensitization value of <0.02 μM are marked with “+++.”)
CN1CCOC2(CCN(c3c(F)cncc3NC(=O)c3c(N)nn4cc(F)cnc34)CC2)C1 [I-N-272, 2-amino-6-fluoro-N-(5-fluoro-4-(4-methyl-1-oxa-4,9-diazaspiro[5.5]undecan-9-yl)pyridin-3-yl)pyrazolo[1,5-a]pyrimidine-3-carboxamide]	+++ (Compounds with a Cisplatin sensitization value of <0.02 μM are marked with “+++.”)
CO[C@H]1CCN(C(=O)C2CCN(c3c(F)cncc3NC(=O)c3c(N)nn4cc(F)cnc34)CC2)C1 [I-G-99, (S)-2-amino-6-fluoro-N-(5-fluoro-4-(4-(3-methoxypyrrolidine-1-carbonyl)piperidin-1-yl)pyridin-3-yl)pyrazolo[1,5-a]pyrimidine-3-carboxamide]	+++ (Compounds with a Cisplatin sensitization value of <0.02 μM are marked with “+++.”)
Cc1ccnn1-c1ccncc1NC(=O)c1c(N)nn2cc(F)cnc12 [I-N-223, 2-amino-6-fluoro-N-(4-(5-methyl-1H-pyrazol-1-yl)pyridin-3-yl)pyrazolo[1,5-a]pyrimidine-3-carboxamide]	++ (Compounds with a Cisplatin sensitization value >0.02 μM but <0.2 μM are marked with “++.”)
CC1(C)CN(c2ccncc2NC(=O)c2c(N)nn3cc(F)cnc23)CCS1(=O)=O [I-N-252, 2-amino-N-(4-(2,2-dimethyl-1,1-dioxidothiomorpholino)pyridin-3-yl)-6-fluoropyrazolo[1,5-a]pyrimidine-3-carboxamide]	+++ (Compounds with a Cisplatin sensitization value of <0.02 μM are marked with “+++.”)
C[C@H]1CN(C(=O)C2CCN(c3c(F)cncc3NC(=O)c3c(N)nn4cc(F)cnc34)CC2)CCN1 [I-G-61, (S)-2-amino-6-fluoro-N-(5-fluoro-4-(4-(3-methylpiperazine-1-carbonyl)piperidin-1-yl)pyridin-3-yl)pyrazolo[1,5-a]pyrimidine-3-carboxamide]	+++ (Compounds with a Cisplatin sensitization value of <0.02 μM are marked with “+++.”)
CN1CCN(C(=O)C2CCN(c3c(F)cncc3NC(=O)c3c(N)nn4cc(F)cnc34)C2)CC1 (centres unmarked) [I-N-191, 2-amino-6-fluoro-N-(5-fluoro-4-(3-(4-methylpiperazine-1-carbonyl)pyrrolidin-1-yl)pyridin-3-yl)pyrazolo[1,5-a]pyrimidine-3-carboxamide]	+ (Compounds with a Cisplatin sensitization value >0.2 μM but <5 μM are marked with “+.”)
CN(C)C(=O)[C@H]1CC[C@@H](Oc2ccncc2NC(=O)c2c(N)nn3cc(F)cnc23)CC1 [I-O-17, 2-amino-N-(4-(((1s,4s)-4-(dimethylcarbamoyl)cyclohexyl)oxy)pyridin-3-yl)-6-fluoropyrazolo[1,5-a]pyrimidine-3-carboxamide]	+++ (Compounds with a Cisplatin sensitization value of <0.02 μM are marked with “+++.”)
C[N+]1([O-])CCc2c(cncc2NC(=O)c2c(N)nn3cc(F)cnc23)C1 (centres unmarked) [I-C-9, 5-(2-amino-6-fluoropyrazolo[1,5-a]pyrimidine-3-carboxamido)-2-methyl-1,2,3,4-tetrahydro-2,7-naphthyridine 2-oxide]	+ (Compounds with a Cisplatin sensitization value >0.2 μM but <5 μM are marked with “+.”)
Nc1nn2cc(F)cnc2c1C(=O)Nc1cncc(C2CC2)c1N1CCN(C2COC2)CC1 [I-N-32, 2-amino-N-(5-cyclopropyl-4-(4-(oxetan-3-yl)piperazin-1-yl)pyridin-3-yl)-6-fluoropyrazolo[1,5-a]pyrimidine-3-carboxamide]	++ (Compounds with a Cisplatin sensitization value >0.02 μM but <0.2 μM are marked with “++.”)
Nc1nn2cc(F)cnc2c1C(=O)Nc1cncc(F)c1N1CCN(C2COC2)CC1 [I-N-13, 2-amino-6-fluoro-N-(5-fluoro-4-(4-(oxetan-3-yl)piperazin-1-yl)pyridin-3-yl)pyrazolo[1,5-a]pyrimidine-3-carboxamide]	+++ (Compounds with a Cisplatin sensitization value of <0.02 μM are marked with “+++.”)
CN1CCN(C(=O)C2CCN(c3ccncc3NC(=O)c3c(N)nn4cc(F)cnc34)CC2)CC1 [I-G-1, 2-amino-6-fluoro-N-(4-(4-(4-methylpiperazine-1-carbonyl)piperidin-1-yl)pyridin-3-yl)pyrazolo[1,5-a]pyrimidine-3-carboxamide]	+++ (Compounds with a Cisplatin sensitization value of <0.02 μM are marked with “+++.”)
Nc1nn2cc(Cl)cnc2c1C(=O)Nc1cnccc1N1CCN2CCC1CC2 [I-N-56, N-(4-(1,4-diazabicyclo[3.2.2]nonan-4-yl)pyridin-3-yl)-2-amino-6-chloropyrazolo[1,5-a]pyrimidine-3-carboxamide]	++ (Compounds with a Cisplatin sensitization value >0.02 μM but <0.2 μM are marked with “++.”)
N#CCc1cnc2c(C(=O)Nc3cnccc3OC3CCCNC3)c(N)nn2c1 (racemic) [I-O-2, (R,S)-2-amino-6-(cyanomethyl)-N-(4-(piperidin-3-yloxy)pyridin-3-yl)pyrazolo[1,5-a]pyrimidine-3-carboxamide]	++ (Compounds with a Cisplatin sensitization value >0.02 μM but <0.2 μM are marked with “++.”)
CCOc1ccncc1NC(=O)c1c(N)nn2cc(Cl)cnc12 [I-O-56, 2-amino-6-chloro-N-(4-ethoxypyridin-3-yl)pyrazolo[1,5-a]pyrimidine-3-carboxamide]	+++ (Compounds with a Cisplatin sensitization value of <0.02 μM are marked with “+++.”)
CC(C#N)c1cnc2c(C(=O)Nc3cnccc3N3CCN(C4COC4)CC3)c(N)nn2c1 (centres unmarked) [I-N-143, 2-amino-6-(1-cyanoethyl)-N-(4-(4-(oxetan-3-yl)piperazin-1-yl)pyridin-3-yl)pyrazolo[1,5-a]pyrimidine-3-carboxamide]	++ (Compounds with a Cisplatin sensitization value >0.02 μM but <0.2 μM are marked with “++.”)
CN1CCN(C(=O)C2CCN(c3c(F)cncc3NC(=O)c3c(N)nn4cc(F)cnc34)CC2)CC1 [I-G-4, 2-amino-6-fluoro-N-(5-fluoro-4-(4-(4-methylpiperazine-1-carbonyl)piperidin-1-yl)pyridin-3-yl)pyrazolo[1,5-a]pyrimidine-3-carboxamide]	+++ (Compounds with a Cisplatin sensitization value of <0.02 μM are marked with “+++.”)
CN1CCC(C(=O)N2CCN(c3c(F)cncc3NC(=O)c3c(N)nn4cc(F)cnc34)CC2)C1 (centres unmarked) [I-N-156, 2-amino-6-fluoro-N-(5-fluoro-4-(4-(1-methylpyrrolidine-3-carbonyl)piperazin-1-yl)pyridin-3-yl)pyrazolo[1,5-a]pyrimidine-3-carboxamide]	+++ (Compounds with a Cisplatin sensitization value of <0.02 μM are marked with “+++.”)
CN1CCN(C2CCN(c3c(F)cncc3NC(=O)c3c(N)nn4cc(F)cnc34)CC2)C(=O)C1 [I-N-151, 2-amino-6-fluoro-N-(5-fluoro-4-(4-(4-methyl-2-oxopiperazin-1-yl)piperidin-1-yl)pyridin-3-yl)pyrazolo[1,5-a]pyrimidine-3-carboxamide]	+ (Compounds with a Cisplatin sensitization value >0.2 μM but <5 μM are marked with “+.”)
Cc1cncn1-c1ccncc1NC(=O)c1c(N)nn2cc(F)cnc12 [I-N-283, 2-amino-6-fluoro-N-(4-(5-methyl-1H-imidazol-1-yl)pyridin-3-yl)pyrazolo[1,5-a]pyrimidine-3-carboxamide]	++ (Compounds with a Cisplatin sensitization value >0.02 μM but <0.2 μM are marked with “++.”)
COCC1CN(C(=O)C2CCN(c3c(F)cncc3NC(=O)c3c(N)nn4cc(F)cnc34)CC2)C1 [I-G-98, 2-amino-6-fluoro-N-(5-fluoro-4-(4-(3-(methoxymethyl)azetidine-1-carbonyl)piperidin-1-yl)pyridin-3-yl)pyrazolo[1,5-a]pyrimidine-3-carboxamide]	+++ (Compounds with a Cisplatin sensitization value of <0.02 μM are marked with “+++.”)

From patent US11117900B2 (Vertex Pharmaceuticals Incorporated, priority 2012, dated 2021)
